Here are results for one compound from US6218438A, “Copolymer compositions for treating viral infections” (Supratek Pharma, Inc., priority 1999, dated 2001).

One series deals with cells. Kind of series: Cytotoxicity (general statement). In kind it is cell-based.
For series [1], the target named is T1, HIV-1 reverse transcriptase (p51/p66 RT), RNAse H activity (Human immunodeficiency virus type 1 group M subtype B, UniProt P03366).
T1 construct: 10 ng of p51/p66 heterodimeric RT per assay were used
Kind of series: Inhibition of RNAse H activity of RT. The format is biochemical. As to the method: (§1) BBNH and Fe(III)-BBNH complex at various concentrations were examined for the ability to inhibit RNA dependent and DNA dependent DNA polymerase activities as well as RNAse H activity of HIV-1 reverse transcriptase (RT RDDP, RT DDDP, and RT RNAse H, respectively). To analyze RT RDDP and RT DDDP the following reaction mixture (100 μl total volume) was used: 50 mM Tris-HCl (pH 7.8), 60 mM KCl, 10 mM MgCl2, 10 ng of p51/p66 RT, 0.1-0.5 units of template/primer, and 0.5-25 μM [^3 H]dNTP. Aliquots of the test compounds dissolved in DMSO were added to the reaction mixtures, incubated for 10-20 min. at 37° C. and than quenched with 500 μl of cold 20 mM sodium pyrophosphate in 10% dichloroacetic acid. After 10 min. on ice, the samples were filtered on Whatman 934-AH glass fiber filters and washed with 10% dichloroacetic acid and ethanol, and the radioactivity was determined by liquid scintillation analysis. To analyze RT RNAse H the following reaction mixture (50 μl total volume) was used: 5OmM Tris-HCl (pH 8.0), 60 mM KCl, 8 mM MgCl2, and variable amounts of ([^3 H]rG)-poly(dC). Generally, 10 ng of p51/p66 heterodimeric RT per assay were used. Aliquots of the test compounds dissolved in DMSO were added to the reaction mixtures, incubated for 20 min. at 37° C. and than quenched by placing the tubes on ice followed by the addition of 100 μl of cold 7% perchloric acid. After 10 min. on ice, the samples were centrifuged at 12,000 g for 15 min. 100 μl of the supernatants were carefully removed, and the radioactivity was determined by liquid scintillation analysis.

In series [2] the target is T2, HIV-1 reverse transcriptase (p51/p66 RT), DDDP activity (Human immunodeficiency virus type 1 group M subtype B, UniProt P03366).
T2 construct: 10 ng of p51/p66 heterodimeric RT per assay were used
Kind of series: Inhibition of DNA dependent DNA polymerase activity of RT (RT DDDP). The format is biochemical. As to the method: as §1

For the next series, the target named is HIV IN (integrase) (Human immunodeficiency virus type 1 group M subtype B, UniProt P03366). Kind of series: Inhibition of DNA-binding activity of HIV integrase. In kind it is biochemical. As to conditions: in vitro.
Series [3] is described as follows: Cytotoxic activity against uninfected MT2 cells (XTT assay). The format is cell-based, human. As to conditions: human, 4 days at 37° C., in DMSO. As to the method:
BBNH and Fe(III)-BBNH complex at various concentrations were examined for cytotoxic activity against uninfected MT2 cells. Aliquots of a solution of the compounds in dimethyl sulfoxide were added to the MT2 cells (2×10^5 cells/ml) in RPMI medium containing 10% fetal bovine serum to provide defined final concentrations of test compound. The cells and test compounds were cultured for 4 days at 37° C., in the presence of 5% CO2 and then cytotoxic effect of the compounds was analyzed by using the standard XTT assay. The CC50 calculated from the results were 10±0.5 μM for BBNH and more than 1000 μM for Fe(III)-BBNH.
On the technique in general: Tetrazolium assays rely on reduction of a dye to a coloured formazan, in cell work by metabolically active cells.

For the next series, the target named is HIV-1 RT (Human immunodeficiency virus type 1 BH10, UniProt P03366). As to conditions: RDDP, RNase H, and DDDP; Borkow et al. 1997; cited from earlier work.
In series [4] the test system is HIV-1 replication in cells. As to conditions: Borkow et al. 1997; cited from earlier work.
For series [5], the system named is HIV-1 infection of MT2 cells. Kind of series: Inhibition of HIV-1 infection of uninfected MT2 cells. In kind it is cell-based. As to conditions: Human immunodeficiency virus 1, compound in DMSO, 30 min before HIV. As to the method:
BBNH and Fe(III)-BBNH complex at various concentrations were examined for the ability to inhibit HIV-1 infection of uninfected MT2 cells. Aliquots of a solution of the compounds in dimethyl sulfoxide were added to uninfected MT2 cells (2×10^5 cells/ml) in RPMI medium containing 10% fetal bovine serum to provide defined final concentrations of test compound. The cells and test compounds were incubated for 30 minutes at 37° C., then inoculated with a suspension of HIV virions. The cells, test compounds and HIV were incubated for 18 h at 37° C., then the cells were collected by centrifugation, washed, and resuspended in RPMI medium containing 10% fetal bovine serum and containing the same concentration of test compound as initially employed. The cells were then cultured at 37° C. (with culture medium changes as required). HIV infection was assessed by microscopic examination of HIV-induced cytopathicity (syncytium) and/or by analysis of HIV p24 antigen levels in the culture supernatants.

Series [6] deals with T3, HIV-1 reverse transcriptase (p51/p66 RT), RDDP activity (Human immunodeficiency virus type 1 group M subtype B, UniProt P03366).
T3 construct: 10 ng of p51/p66 heterodimeric RT per assay were used
Kind of series: Inhibition of RNA dependent DNA polymerase activity of RT (RT RDDP). The format is biochemical. As to the method:
as §1

Where only a bound is given, the exact number is not on record here.

By IC50 is commonly meant the concentration that gives 50% inhibition. A low value points to greater potency. Broadly, the CC50 is the concentration at which the toxic effect on the cells reaches its halfway point. High values mean better tolerance by the cells, low ones harm at low concentration. With `CC(C)(C)c1ccc(C(=O)NN=Cc2c(O)ccc3ccccc23)cc1` [BBNH, N-(4-t-butylbenzoyl)-2-hydroxy-1-naphthaldehyde hydrazone, reference compound], the cytotoxicity result in the series on cells is “cytotoxic”. Besides, the IC50 in [1] (10 min. preincubation) is 3.5 ± 0.8 µM; in series [1] (No preincubation), above 50 µM; in series [2] it was 12.5 ± 5 µM; at HIV IN (integrase), around 5 µM; in series [5], 1.5 ± 0.5 µM; in series [6], 1.9 ± 0.1 µM. Also, in [1] (in vitro, preincubation of the enzyme with BBNH), the “preincubation needed for maximal inhibition of RT RNase H” value was 10 to 15 min. Besides, the “preincubation needed for maximal inhibition of IN” value at HIV IN (integrase) (preincubation of the enzyme with BBNH) was 10 to 15 min. This compound also displayed a CC50 at 96 h in series [3] of 10 ± 0.5 µM. Further, at HIV-1 RT, the “inhibition of all three enzymatic activities of HIV-1 RT in vitro” value is on record as “good inhibitor of all three enzymatic activities of HIV-1 RT in vitro”. In [4], the “inhibition of replication of HIV-1 in infected cells” value is recorded as “inhibits replication of HIV-1 in infected cells”.
